{
  "source": "patent US7563592B2",
  "about": "“Alizarin-based chromogenic substrates, their uses and composition containing same” (Biomerieux, S.A., priority 1999, dated 2009)",
  "key": {"[1]": {"test_system": "Listeria monocytogenes 022", "experiment": "β-glucosidase detection in API strip wells (Example 6)", "conditions": "0.4 g/l"}, "[2]": {"test_system": "Klebsiella pneumoniae 023", "experiment": "β-glucosidase detection in API strip wells (Example 6)", "conditions": "0.4 g/l"}, "eight (8) species tested": {"test_system": "eight (8) species tested", "experiment": "β-glucosidase detection in API strip wells, all species together (Example 6)", "assay_type": "cell-based", "conditions": "of the eight (8) species tested; 0.4 g/l"}, "Enterococcus faecium 009": {"test_system": "Enterococcus faecium 009", "experiment": "β-glucosidase detection in API strip wells (Example 6)", "conditions": "0.4 g/l"}, "[3]": {"test_system": "Enterococcus faecalis 117", "experiment": "Comparison of glucoside substrates in semi-solid Columbia medium (Example 7)", "assay_type": "cell-based"}, "Citrobacter koseri 059": {"test_system": "Citrobacter koseri 059", "experiment": "Comparison of glucoside substrates in semi-solid Columbia medium (Example 7)", "assay_type": "cell-based"}, "[4]": {"test_system": "Klebsiella pneumoniae 023", "experiment": "Comparison of glucoside substrates in semi-solid Columbia medium (Example 7)", "assay_type": "cell-based"}, "Listeria innocua 036": {"test_system": "Listeria innocua 036", "experiment": "β-glucosidase detection in API strip wells (Example 6)", "conditions": "0.4 g/l"}, "Listeria ivanovii 018": {"test_system": "Listeria ivanovii 018", "experiment": "β-glucosidase detection in API strip wells (Example 6)", "conditions": "0.4 g/l"}, "Listeria seeligeri 080": {"test_system": "Listeria seeligeri 080", "experiment": "β-glucosidase detection in API strip wells (Example 6)", "conditions": "0.4 g/l; 24 H"}, "[5]": {"test_system": "eight strains possessing β-galactosidase activity", "experiment": "Fluorescent check of β-galactosidase activity in the eight discordant strains (Example 2)", "assay_type": "cell-based", "conditions": "all eight strains that selectively hydrolyzed Alizarin-2-β-D-galactoside", "source_text": "The vast majority of strains (96.5%) reacted in exactly the same way—i.e. either positively or negatively—with both substrates. Eight strains selectively hydrolyzed Alizarin-2-β-D-galactoside. […] Therefore, these substrates are extremely sensitive and can be used at very low concentrations."}, "Serratia marcescens 042": {"test_system": "Serratia marcescens 042", "experiment": "β-galactosidase detection in semi-solid Columbia medium (Example 1)", "assay_type": "cell-based", "conditions": "0.2 g/l, no iron citrate"}, "[6]": {"test_system": "Klebsiella pneumoniae 023", "experiment": "β-galactosidase detection in semi-solid Columbia medium (Example 1)", "assay_type": "cell-based", "conditions": "0.2 g/l, no iron citrate; 48 H"}, "Escherichia coli 115": {"test_system": "Escherichia coli 115", "experiment": "β-galactosidase detection in semi-solid Columbia medium (Example 1)", "assay_type": "cell-based", "conditions": "0.2 g/l, no iron citrate"}, "[7]": {"conditions": "0.15 g/l, no iron citrate, 18 H"}, "[8]": {"conditions": "0.15 g/l, no iron citrate, 24 H"}, "[9]": {"conditions": "0.15 g/l, no iron citrate, 48 H"}, "[10]": {"conditions": "0.05 g/l + iron citrate 0.05 g/l, 18 H"}, "[11]": {"conditions": "0.05 g/l + iron citrate 0.05 g/l, 24 H"}, "[12]": {"conditions": "0.05 g/l + iron citrate 0.05 g/l, 48 H"}, "[13]": {"conditions": "0.1 g/l + iron citrate 0.05 g/l, 18 H"}, "[14]": {"conditions": "0.1 g/l + iron citrate 0.05 g/l, 24 H"}, "[15]": {"conditions": "0.1 g/l + iron citrate 0.05 g/l, 48 H"}},
  "data": [
    {"smiles": "OC[C@H]1O[C@@H](Oc2c[nH]c3cc(Cl)ccc23)[C@H](O)[C@@H](O)[C@@H]1O", "note": "[reference compound]", "values": [
      {"measurement": "Color observed", "setting": "[1]; 4 H", "value": "Pink"},
      {"measurement": "Color observed", "setting": "[1]; 24 H", "value": "Pink"},
      {"measurement": "Color observed", "setting": "[2]; 4 H", "value": "Pink"},
      {"measurement": "Color observed", "setting": "[2]; 24 H", "value": "Pink"},
      {"measurement": "species in which activity was detected", "setting": "eight (8) species tested", "value": 6, "unit": "species"},
      {"measurement": "Color observed", "setting": "Enterococcus faecium 009; 4 H", "value": "Pink"},
      {"measurement": "Color observed", "setting": "Enterococcus faecium 009; 24 H", "value": "Pink"},
      {"measurement": "Color", "setting": "[3]; [7]", "value": "Pink"},
      {"measurement": "Intensity", "setting": "[3]; [7]", "value": 1.5, "unit": "arbitrary units"},
      {"measurement": "Color", "setting": "[3]; [8]", "value": "Pink"},
      {"measurement": "Intensity", "setting": "[3]; [8]", "value": 2, "unit": "arbitrary units"},
      {"measurement": "Color", "setting": "[3]; [9]", "value": "Pink"},
      {"measurement": "Intensity", "setting": "[3]; [9]", "value": 2.5, "unit": "arbitrary units"},
      {"measurement": "Color", "setting": "Citrobacter koseri 059; [7]", "value": "Pink"},
      {"measurement": "Intensity", "setting": "Citrobacter koseri 059; [7]", "value": 0.5, "unit": "arbitrary units"},
      {"measurement": "Color", "setting": "Citrobacter koseri 059; [8]", "value": "Pink"},
      {"measurement": "Intensity", "setting": "Citrobacter koseri 059; [8]", "value": 1, "unit": "arbitrary units"},
      {"measurement": "Color", "setting": "Citrobacter koseri 059; [9]", "value": "Pink"},
      {"measurement": "Intensity", "setting": "Citrobacter koseri 059; [9]", "value": 2, "unit": "arbitrary units"},
      {"measurement": "Color", "setting": "[4]; [7]", "value": "Pink"},
      {"measurement": "Intensity", "setting": "[4]; [7]", "value": 2, "unit": "arbitrary units"},
      {"measurement": "Color", "setting": "[4]; [8]", "value": "Pink"},
      {"measurement": "Intensity", "setting": "[4]; [8]", "value": 2.5, "unit": "arbitrary units"},
      {"measurement": "Color", "setting": "[4]; [9]", "value": "Pink"},
      {"measurement": "Intensity", "setting": "[4]; [9]", "value": 3, "unit": "arbitrary units"},
      {"measurement": "Color observed", "setting": "Listeria innocua 036; 4 H", "value": "Pink"},
      {"measurement": "Color observed", "setting": "Listeria innocua 036; 24 H", "value": "Pink"},
      {"measurement": "Color observed", "setting": "Listeria ivanovii 018; 4 H", "value": "Pink"},
      {"measurement": "Color observed", "setting": "Listeria ivanovii 018; 24 H", "value": "Pink"},
      {"measurement": "Color observed", "setting": "Listeria seeligeri 080", "value": "Pink"}
    ]},
    {"smiles": "Cc1cc(=O)oc2cc(O[C@@H]3O[C@H](CO)[C@H](O)[C@H](O)[C@H]3O)ccc12", "note": "[4-Methylumbelliferyl-β-D-galactoside]", "values": [
      {"measurement": "signal in the presence of the substrate", "setting": "[5]", "value": "production of a fluorescent signal"}
    ]},
    {"smiles": "OC[C@H]1O[C@@H](Oc2c[nH]c3cc(Cl)ccc23)[C@H](O)[C@@H](O)[C@H]1O", "note": "[6-Chloro-3-indolyl-β-D-galactoside, reference compound]", "values": [
      {"measurement": "Color", "setting": "Serratia marcescens 042; 18 H", "value": "pink"},
      {"measurement": "Intensity", "setting": "Serratia marcescens 042; 18 H", "value": 0.3},
      {"measurement": "Color", "setting": "Serratia marcescens 042; 24 H", "value": "pink"},
      {"measurement": "Intensity", "setting": "Serratia marcescens 042; 24 H", "value": 0.8},
      {"measurement": "Color", "setting": "Serratia marcescens 042; 48 H", "value": "pink"},
      {"measurement": "Intensity", "setting": "Serratia marcescens 042; 48 H", "value": 3.5},
      {"measurement": "Color", "setting": "[6]", "value": "pink"},
      {"measurement": "Intensity", "setting": "[6]", "value": 0.3},
      {"measurement": "Color", "setting": "Escherichia coli 115; 18 H", "value": "pink"},
      {"measurement": "Intensity", "setting": "Escherichia coli 115; 18 H", "value": 3.5},
      {"measurement": "Color", "setting": "Escherichia coli 115; 24 H", "value": "pink"},
      {"measurement": "Intensity", "setting": "Escherichia coli 115; 24 H", "value": 3.5},
      {"measurement": "Color", "setting": "Escherichia coli 115; 48 H", "value": "pink"},
      {"measurement": "Intensity", "setting": "Escherichia coli 115; 48 H", "value": 3.5}
    ]},
    {"smiles": "O=C1c2ccccc2C(=O)c2c1ccc(O)c2O[C@@H]1O[C@H](CO)[C@@H](O)[C@H](O)[C@H]1O", "note": "[1-Alizarin1-β-D-glucoside, Alizarin-1-β-D-glucoside]", "values": [
      {"measurement": "Color", "setting": "[3]; [10]", "value": "Purple"},
      {"measurement": "Intensity", "setting": "[3]; [10]", "value": 3.5, "unit": "arbitrary units"},
      {"measurement": "Color", "setting": "[3]; [11]", "value": "Purple"},
      {"measurement": "Intensity", "setting": "[3]; [11]", "value": 4, "unit": "arbitrary units"},
      {"measurement": "Color", "setting": "[3]; [12]", "value": "Purple"},
      {"measurement": "Intensity", "setting": "[3]; [12]", "value": 4, "unit": "arbitrary units"},
      {"measurement": "Color", "setting": "[3]; [13]", "value": "Purple"},
      {"measurement": "Intensity", "setting": "[3]; [13]", "value": 3.5, "unit": "arbitrary units"},
      {"measurement": "Color", "setting": "[3]; [14]", "value": "Purple"},
      {"measurement": "Intensity", "setting": "[3]; [14]", "value": 4, "unit": "arbitrary units"},
      {"measurement": "Color", "setting": "[3]; [15]", "value": "Purple"},
      {"measurement": "Intensity", "setting": "[3]; [15]", "value": 4, "unit": "arbitrary units"},
      {"measurement": "Color", "setting": "Citrobacter koseri 059; [10]", "value": "Mauve"},
      {"measurement": "Intensity", "setting": "Citrobacter koseri 059; [10]", "value": 1.5, "unit": "arbitrary units"},
      {"measurement": "Color", "setting": "Citrobacter koseri 059; [11]", "value": "Mauve"},
      {"measurement": "Intensity", "setting": "Citrobacter koseri 059; [11]", "value": 2, "unit": "arbitrary units"},
      {"measurement": "Color", "setting": "Citrobacter koseri 059; [12]", "value": "Mauve"},
      {"measurement": "Intensity", "setting": "Citrobacter koseri 059; [12]", "value": 2.5, "unit": "arbitrary units"},
      {"measurement": "Color", "setting": "Citrobacter koseri 059; [13]", "value": "Mauve"},
      {"measurement": "Intensity", "setting": "Citrobacter koseri 059; [13]", "value": 2.5, "unit": "arbitrary units"},
      {"measurement": "Color", "setting": "Citrobacter koseri 059; [14]", "value": "Mauve"},
      {"measurement": "Intensity", "setting": "Citrobacter koseri 059; [14]", "value": 3, "unit": "arbitrary units"},
      {"measurement": "Color", "setting": "Citrobacter koseri 059; [15]", "value": "Mauve"},
      {"measurement": "Intensity", "setting": "Citrobacter koseri 059; [15]", "value": 4, "unit": "arbitrary units"},
      {"measurement": "Color", "setting": "[4]; [10]", "value": "Purple"},
      {"measurement": "Intensity", "setting": "[4]; [10]", "value": 2.5, "unit": "arbitrary units"},
      {"measurement": "Color", "setting": "[4]; [11]", "value": "Purple"},
      {"measurement": "Intensity", "setting": "[4]; [11]", "value": 3, "unit": "arbitrary units"},
      {"measurement": "Color", "setting": "[4]; [12]", "value": "Purple"},
      {"measurement": "Intensity", "setting": "[4]; [12]", "value": 3.5, "unit": "arbitrary units"},
      {"measurement": "Color", "setting": "[4]; [13]", "value": "Purple"},
      {"measurement": "Intensity", "setting": "[4]; [13]", "value": 3.5, "unit": "arbitrary units"},
      {"measurement": "Color", "setting": "[4]; [14]", "value": "Purple"},
      {"measurement": "Intensity", "setting": "[4]; [14]", "value": 4, "unit": "arbitrary units"},
      {"measurement": "Color", "setting": "[4]; [15]", "value": "Purple"},
      {"measurement": "Intensity", "setting": "[4]; [15]", "value": 4, "unit": "arbitrary units"}
    ]}
  ]
}
